Measurements: PMC12410356 (International Journal for Parasitology: Drugs and Drug …, 2025)

Tests used:
[1] = test system: E. multilocularis metacestode vesicles; test: Phosphoglucose isomerase (PGI) release assay (damage-marker release) on metacestode vesicles; type: cell-based, Echinococcus multilocularis; conditions: 10 μM; for PGI d5 (relative PGI release): 5 days; for PGI d12 (relative PGI release): 12 days; for activity in the PGI release assay (in words): twelve days, cut-off PGI release ≥20 %
Experimental: In order to quantify the drug-induced damage on whole metacestode vesicles, phosphoglucose isomerase (PGI) assay was performed as described previously ([Stadelmann et al., 2010]) with few adaptations published recently ([Kaethner et al., 2023]). In short, 8 to 12 weeks-old metacestode vesicles were purified using 2 % sucrose with subsequent washes in PBS. Metacestode vesicles were diluted in two volumes of DMEM without phenol red containing penicillin (100 U/mL) and streptomycin (100 μg/mL). […] 0.1 % DMSO was used as a negative solvent control and 0.1 % Triton X-100 was used as a positive total damage control. Metacestode vesicles were incubated under a humid, 5 % CO2 atmosphere at 37 °C. After five and twelve days, supernatant was taken and pictures were made using a Nikon SMZ18 stereo microscope (Nikon, Basel, Switzerland) at 7.5 × magnification. PGI activity in the supernatants was measured on a HIDEX Sense microplate reader (Hidex, Turku, Finland). The corresponding values of the DMSO controls were subtracted from the values of the compounds and then PGI activity was calculated relative to 0.1 % Triton X-100. […] IC50 values were calculated applying the 3 parameter Weibull type 1 in R for each of the three independent experiments ([Ritler et al., 2020]).

[2] = test system: E. multilocularis metacestode vesicles; test: Metacestode vesicle viability assay (ATP, CellTiter-Glo); type: cell-based, Echinococcus multilocularis; conditions: for effect on metacestode vesicle viability (in words): twelve days, cut-off viability ≤30 %
Experimental: Viability was assessed after 12 days using the same metacestode vesicles as for the PGI release assay. Triton X-100 was added to each well to a final concentration of 0.1 %. Subsequently the metacestode vesicles were broken mechanically and 50 μL of the supernatant was mixed with 50 μL of CellTiter-Glo® buffer (Promega, Dübendorf, Switzerland). Measurements were performed on a HIDEX Sense microplate reader.

[3] = overview screen, singlets, relative to 0.1 % Triton X-100, DMSO subtracted
[4] = overview screen, 10 μM, singlets, 12 days, relative to DMSO control
[5] = confirmation screen, triplicates, mean

Row | Compound | PGI d5 (relative PGI release) [1, 3] [%] | PGI d12 (relative PGI release) [1, 3] [%] | Viability d12 (relative viability) [2, 4] [%] | other results
1 | O=C(CP(=O)(O)O)NCCc1cccc(Oc2ccccc2)c1 [MMV1579787] | -1.804 | -11.6628 | 61.3703 | –
2 | Nc1cc(N)c2nc(-c3ccccc3)c(Nc3ccc(F)cc3)nc2c1 [MMV1581554] | 4.452 | -9.136 | 104.705 | –
3 | CC1=C(/C=C/C(C)=C/C=C/C(C)=C/C(=O)Nc2ccc(O)cc2)C(C)(C)CCC1 [MMV001793] | 0.1304 | -19.3598 | 54.0144 | –
4 | Cc1nc2ccc(Cl)cc2c(-c2ccccc2)c1CC(=O)O [MMV1580801] | 6.482 | 83.9153 | 42.503 | –
5 | CCN(CC)CCn1c(=N)n(CC(O)COc2ccc(Cl)cc2Cl)c2ccccc21 (stereo not shown) [MMV000725] | -2.18 | -13.7901 | 72.9764 | –
6 | C(=C\c1nc2ccccc2[nH]1)/c1ccc2c(c1)OCO2 [MMV1582495] | -1.5423 | -10.1943 | 98.8605 | –
7 | C[C@H]1[C@@H](c2cccc(C(F)(F)F)c2)OC(=O)N1C(=O)NCc1cncc2ccccc12 [MMV1593533] | -2.428 | -25.2459 | 85.501 | –
8 | O=c1cc(OCc2ccccc2)ccn1Cc1ccccc1 [MMV1579775] | -1.928 | -10.779 | 63.3743 | –
9 | NC(N)=NCCCCC(=O)Nc1cc(C(F)(F)F)cc(NC(=O)c2cc(C(=O)Nc3cc(C(F)(F)F)cc(NC(=O)CCCCN=C(N)N)c3O[C@@H]3CCNC3)ncn2)c1O[C@@H]1CCNC1 [MMV1634402] | -1.176 | 3.242 | 96.1157 | –
10 | CCCCc1ccc(C(=O)O)nc1 [MMV001726] | -0.06574 | -20.229 | 162.188 | –
11 | CCC[C@@H]1C[C@@H](C(=O)N[C@@H]([C@H]2O[C@H](SC)[C@H](O)[C@@H](O)[C@H]2O)[C@H](C)Cl)N(C)C1.Cl [MMV000051] | 15.4885 | 58.7211 | 23.7506 | PGI d5 (relative PGI release) [1, 5]: 0.38%; PGI d12 (relative PGI release) [1, 5]: -0.19%; Viability d12 (relative viability) ([2]; confirmation screen, 10 μM, triplicates, mean, 12 days): 61.99%
12 | CC(=O)Oc1ccccc1C(=O)Nc1ncc([N+](=O)[O-])s1 [nitazoxanide, reference compound] | 37.9028 | 44.5196 | – | activity in the PGI release assay (in words) ([1]; overview screen): showed activity in the PGI release assay; activity in the PGI release assay (in words) ([1]; overview screen, listed as MMV688991): active in the PGI assay after twelve days; viability at 10 µM ([2]; Echinococcus multilocularis, 288 h, overview screen, 10 μM, singlets, 12 days, relative to DMSO control, read-out: Viability d12 (relative viability)): 38.4%; effect on metacestode vesicle viability (in words) ([2]; overview screen, 10 μM): did not meet the threshold in the metacestode viability assay; effect on metacestode vesicle viability (in words) ([2]; overview screen, 10 μM, listed as MMV688991): did not reduce the metacestode vesicle viability
13 | O=C1CCC(N2C(=O)c3ccccc3C2=O)C(=O)N1 (stereo not shown) [MMV002612] | -1.046 | -2.884 | – | Viability d12 (relative viability) ([2]; 10 µM): 99.2866%
14 | CC(Cc1ccccc1)C(=O)Nc1ccc(Cl)cc1C(=O)O (stereo not shown) [MMV1579781] | -1.72 | 1.6268 | 82.6324 | –
15 | O=C(NCc1ncc(C(F)(F)F)cc1Cl)c1c(Cl)cccc1Cl [MMV689401] | -2.654 | -25.1085 | 22.5442 | –
16 | COc1cc(C2C3=C(CC(C)(C)CC3=O)Nc3ccccc3N2C(C)=O)ccc1OCc1ccccc1 (stereo not shown) [MMV1634557] | -2.659 | -23.764 | 141.611 | –
17 | CCNC(=O)Nc1cn2c(-c3ncc(CC)cn3)cc(-c3cccnc3)cc2n1 [MMV1782403] | -2.559 | 16.0574 | 142.751 | –
18 | C/C(=N\NC(=O)C1CC1c1ccccc1)c1ccc(NC(=O)c2ccco2)cc1 (stereo not shown) [MMV1580487] | -1.203 | -0.8271 | 105.695 | –
19 | CCNC(=O)Nc1cc(-c2ccccc2)c(-c2cncc(C(=O)O)c2)cn1 [MMV1593534] | -2.168 | -24.3929 | 81.2426 | –
20 | [N-]=[N+]=N[C@H]1C[C@H](n2ccc(=O)[nH]c2=O)O[C@@H]1CO [MMV1593520] | 0.5917 | -8.089 | 90.373 | –
21 | O=C(NO)C1(CS(=O)(=O)c2ccc(Oc3ccc(Cl)cc3)cc2)CCOCC1 [MMV690706] | 0.06885 | -1.025 | 178.089 | –
22 | CS(=O)(=O)c1ccc(Oc2ccc(Cl)cc2)cc1 [MMV1634404] | -0.3308 | -18.6197 | 57.7676 | –
23 | O=C1c2cccc3cccc(c23)C(=O)N1CC1CO1 (stereo not shown) [MMV1634360] | -2.544 | 17.7299 | 25.8841 | –
24 | CC(C)Cn1c(=O)n(C)c(=O)c2c(-c3cncn3C)n(Cc3cccc4ccccc34)nc21 [MMV1581559] | -0.3605 | 37.1265 | 31.7083 | –
25 | NCc1ccc(S(N)(=O)=O)cc1 [MMV002665] | 0.8805 | -5.499 | – | Viability d12 (relative viability) ([2]; 10 µM): 140.59%
26 | COc1cc(NS(=O)(=O)c2ccc(C)cc2)c2ncccc2c1 [MMV098836] | -0.2103 | 2.3899 | 72.5053 | –
